We go through two compounds from patent US10035771B2 (priority 2013, dated 2018).

For test [1], the target named is light chain of type A botulinum toxin (Clostridium botulinum, UniProt P0DPI1). Particulars: read-out: Ki value; cited from earlier work.
Test [2] has as its target type A botulinum toxin light chain (BoNT/A-LC) (Clostridium botulinum, UniProt P0DPI1). In words: biochemical. As to conditions: read-out: Inhibition rate %.
Test [3] addresses type B botulinum toxin light chain (BoNT/B-LC) (Clostridium botulinum, UniProt P10844). The experiment in a line: biochemical. As to conditions: read-out: Inhibition rate %.
The target in test [4] is type E botulinum toxin light chain (BoNT/E-LC) (Clostridium botulinum, UniProt Q00496). The experiment in a line: biochemical. As to conditions: read-out: Inhibition rate %.
The next test has as its target BoNT/F-LC (Clostridium botulinum, UniProt A7GBG3). In words: biochemical. As to conditions: read-out: Inhibition rate %.
The target in test [5] is tetanus toxin light chain (TeNt-LC) (Clostridium tetani, UniProt P04958). In words: biochemical. As to conditions: read-out: Inhibition rate %.
tetanus toxin light chain (TeNt-LC), sequence (P04958 2-457 limits assumed): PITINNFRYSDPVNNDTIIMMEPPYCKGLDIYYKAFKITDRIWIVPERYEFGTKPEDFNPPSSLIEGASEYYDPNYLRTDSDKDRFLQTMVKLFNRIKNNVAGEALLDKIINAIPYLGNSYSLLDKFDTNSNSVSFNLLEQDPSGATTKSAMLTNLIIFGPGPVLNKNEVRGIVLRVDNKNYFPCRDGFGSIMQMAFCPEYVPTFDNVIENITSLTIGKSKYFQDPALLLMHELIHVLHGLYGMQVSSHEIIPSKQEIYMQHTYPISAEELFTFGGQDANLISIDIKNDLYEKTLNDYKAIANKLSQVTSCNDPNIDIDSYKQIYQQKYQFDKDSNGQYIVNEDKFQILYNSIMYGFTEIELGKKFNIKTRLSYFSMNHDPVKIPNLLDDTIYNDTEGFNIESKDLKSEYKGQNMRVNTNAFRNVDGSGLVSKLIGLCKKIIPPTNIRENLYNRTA
Test [6] deals with type A botulinum toxin (BoNT/A) (Clostridium botulinum, UniProt P0DPI1). Further details: species or system Balb/c mice. Particulars: mouse, in vivo, ip.
type A botulinum toxin (BoNT/A), sequence (P0DPI1 2-448 limits assumed): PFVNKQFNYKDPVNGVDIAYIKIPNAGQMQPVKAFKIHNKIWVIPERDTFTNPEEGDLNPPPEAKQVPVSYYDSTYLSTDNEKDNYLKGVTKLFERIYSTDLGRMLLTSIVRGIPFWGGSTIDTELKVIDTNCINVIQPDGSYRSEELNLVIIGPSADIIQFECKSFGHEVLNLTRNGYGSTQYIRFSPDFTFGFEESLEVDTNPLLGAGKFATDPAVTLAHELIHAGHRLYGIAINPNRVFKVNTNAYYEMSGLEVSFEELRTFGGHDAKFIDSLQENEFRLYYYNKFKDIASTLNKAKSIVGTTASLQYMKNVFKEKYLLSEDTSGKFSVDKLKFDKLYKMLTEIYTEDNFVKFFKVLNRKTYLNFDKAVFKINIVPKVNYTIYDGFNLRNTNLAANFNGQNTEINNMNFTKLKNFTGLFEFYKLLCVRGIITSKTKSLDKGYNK
type A botulinum toxin (BoNT/A), sequence (P0DPI1 449-1296 limits assumed): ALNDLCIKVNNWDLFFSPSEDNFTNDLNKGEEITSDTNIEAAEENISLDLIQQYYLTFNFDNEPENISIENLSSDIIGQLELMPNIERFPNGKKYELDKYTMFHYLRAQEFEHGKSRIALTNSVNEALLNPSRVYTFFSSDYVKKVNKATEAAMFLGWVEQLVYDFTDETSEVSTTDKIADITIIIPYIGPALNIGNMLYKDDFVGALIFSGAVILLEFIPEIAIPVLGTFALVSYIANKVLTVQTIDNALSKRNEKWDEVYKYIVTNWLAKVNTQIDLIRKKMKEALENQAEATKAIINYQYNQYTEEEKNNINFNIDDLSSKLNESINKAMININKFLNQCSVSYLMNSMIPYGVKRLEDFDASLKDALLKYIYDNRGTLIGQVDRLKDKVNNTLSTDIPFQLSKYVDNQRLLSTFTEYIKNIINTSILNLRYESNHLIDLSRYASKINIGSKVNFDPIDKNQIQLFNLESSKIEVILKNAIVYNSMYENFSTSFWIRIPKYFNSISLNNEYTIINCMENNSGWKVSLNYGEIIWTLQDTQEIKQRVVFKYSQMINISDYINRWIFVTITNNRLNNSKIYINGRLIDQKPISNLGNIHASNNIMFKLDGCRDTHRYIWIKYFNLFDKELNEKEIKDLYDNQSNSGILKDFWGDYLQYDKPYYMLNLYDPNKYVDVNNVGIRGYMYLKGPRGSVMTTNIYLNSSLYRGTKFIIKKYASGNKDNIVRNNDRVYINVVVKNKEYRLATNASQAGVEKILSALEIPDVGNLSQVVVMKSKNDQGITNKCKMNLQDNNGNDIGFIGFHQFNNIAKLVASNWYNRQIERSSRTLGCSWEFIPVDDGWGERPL
In test [7] the target is type B botulinum toxin (BoNT/B) (Clostridium botulinum, UniProt P10844). On the set-up: species or system Balb/c mice. Particulars: mouse, in vivo, ip.
type B botulinum toxin (BoNT/B), sequence (P10844 2-441 limits assumed): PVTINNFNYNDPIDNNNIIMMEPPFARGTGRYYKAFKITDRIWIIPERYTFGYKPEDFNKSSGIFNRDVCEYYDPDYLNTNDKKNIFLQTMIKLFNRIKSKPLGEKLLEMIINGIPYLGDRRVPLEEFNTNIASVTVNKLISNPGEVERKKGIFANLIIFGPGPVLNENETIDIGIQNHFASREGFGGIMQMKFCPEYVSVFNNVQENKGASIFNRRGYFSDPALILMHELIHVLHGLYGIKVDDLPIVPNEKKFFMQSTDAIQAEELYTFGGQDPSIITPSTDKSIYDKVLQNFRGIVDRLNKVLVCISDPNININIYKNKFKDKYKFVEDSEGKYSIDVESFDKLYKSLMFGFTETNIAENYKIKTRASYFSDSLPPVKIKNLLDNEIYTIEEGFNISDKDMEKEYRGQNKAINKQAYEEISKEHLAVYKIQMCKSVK
type B botulinum toxin (BoNT/B), sequence (P10844 442-1291 limits assumed): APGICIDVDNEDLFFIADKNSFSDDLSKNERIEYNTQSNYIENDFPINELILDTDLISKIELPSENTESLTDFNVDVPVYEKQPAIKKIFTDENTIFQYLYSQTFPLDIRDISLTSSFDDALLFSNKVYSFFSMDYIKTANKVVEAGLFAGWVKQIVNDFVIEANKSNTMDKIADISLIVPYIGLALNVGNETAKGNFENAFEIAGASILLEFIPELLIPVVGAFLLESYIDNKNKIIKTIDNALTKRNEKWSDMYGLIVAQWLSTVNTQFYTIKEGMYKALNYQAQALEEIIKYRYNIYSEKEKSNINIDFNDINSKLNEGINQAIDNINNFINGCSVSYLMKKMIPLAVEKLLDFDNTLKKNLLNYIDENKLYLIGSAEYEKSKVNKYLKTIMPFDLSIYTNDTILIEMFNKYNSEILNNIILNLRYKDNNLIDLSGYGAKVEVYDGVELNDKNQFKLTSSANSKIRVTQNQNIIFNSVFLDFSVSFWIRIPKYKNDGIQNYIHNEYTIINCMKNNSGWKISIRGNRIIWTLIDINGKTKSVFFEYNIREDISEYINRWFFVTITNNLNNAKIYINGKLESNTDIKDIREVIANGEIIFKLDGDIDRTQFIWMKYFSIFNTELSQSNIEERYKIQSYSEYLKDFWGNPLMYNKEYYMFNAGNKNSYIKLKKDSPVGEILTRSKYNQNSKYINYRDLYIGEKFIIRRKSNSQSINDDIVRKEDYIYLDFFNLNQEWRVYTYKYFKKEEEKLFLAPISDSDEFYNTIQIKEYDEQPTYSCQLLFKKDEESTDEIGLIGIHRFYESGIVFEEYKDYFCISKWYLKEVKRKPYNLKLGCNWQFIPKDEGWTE

BoNT/F-LC, sequence (A7GBG3 1-436 limits assumed): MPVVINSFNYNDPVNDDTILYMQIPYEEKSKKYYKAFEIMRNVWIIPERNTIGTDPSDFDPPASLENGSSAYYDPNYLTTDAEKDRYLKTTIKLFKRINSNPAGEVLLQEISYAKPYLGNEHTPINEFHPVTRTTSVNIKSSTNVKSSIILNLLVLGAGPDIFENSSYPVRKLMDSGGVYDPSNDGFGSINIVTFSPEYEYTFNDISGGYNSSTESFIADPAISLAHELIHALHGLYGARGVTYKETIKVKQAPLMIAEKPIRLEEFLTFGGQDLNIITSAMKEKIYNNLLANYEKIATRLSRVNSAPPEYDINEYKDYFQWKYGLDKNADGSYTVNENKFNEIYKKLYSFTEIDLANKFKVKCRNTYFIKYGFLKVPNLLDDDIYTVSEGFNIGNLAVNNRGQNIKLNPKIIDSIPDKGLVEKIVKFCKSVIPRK
light chain of type A botulinum toxin, sequence (P0DPI1 2-448 limits assumed): as the sequence (P0DPI1 2-448 limits assumed) above
type A botulinum toxin light chain (BoNT/A-LC), sequence (P0DPI1 2-448 limits assumed): as above
type B botulinum toxin light chain (BoNT/B-LC), sequence (P10844 2-441 limits assumed): as the sequence (P10844 2-441 limits assumed) above

As to `COC(=O)c1ccc(O)c2nc3c(C=O)c(O)cc(O)c3nc12` [lomofungin], the Ki – broadly, a measure of affinity in units of concentration, obtained from inhibition or displacement – in test [1] is 6.7 ± 0.7 µM.
For `O=C(CSc1ncccc1C(=O)[O-])Nc1cc(F)ccc1Cl.[K+]` [Example 18, 2-(2-(5-fluoro-2-chlorophenyl)-2-acetylthio)nicotinate potassium], the inhibition (commonly the relative decrease from the control value, in per cent) at 100 µg/mL in test [2] came to 11.4%; in test [3] it was 30.2%; in test [4], 17.2%; at BoNT/F-LC, 16.2%. For the same compound, the inhibition at 200 µg/mL in test [5] came out at 19.3%. The “% survival” value in test [6] was determined as 0%; in test [7], 40%.
